Assay results taken from ChEMBL document CHEMBL1201862, “PubChem BioAssay data set” (2004).
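Assay format: 96-well plates, 48-hour exposure. Abbreviation: GI50, concentration required for 50% inhibition of growth.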 Active and inactive are the calls of the source. Cut-off read from the data, not from the text of the source: active = GI50 up to about 1.1 µM and inactive = higher.

Columns and labels:
Assay in all cases: NCI anticancer screen, dose series, 48 h
DU-145 = tested on: DU-145
Hs-578T = tested on: Hs-578T
M14 = tested on: M14
OVCAR-3 = tested on: OVCAR-3
MOLT-4 = tested on: MOLT-4
SN12C = tested on: SN12C
KM12 = tested on: KM12
EKVX = tested on: EKVX
MCF7 = tested on: MCF7
HCT-15 = tested on: HCT-15
HOP-92 = tested on: HOP-92
SK-MEL-28 = tested on: SK-MEL-28
SF-268 = tested on: SF-268
HOP-62 = tested on: HOP-62
OVCAR-8 = tested on: OVCAR-8
COLO 205 = tested on: COLO 205
MDA-N = tested on: MDA-N
MDA-MB-435 = tested on: MDA-MB-435
SNB-75 = tested on: SNB-75
MDA-MB-231 = tested on: MDA-MB-231

Measured: GI50

COc1ccc(C(O)/C(=N/N)c2nc3ccc(Cl)cc3nc2O)cc1 (stereo not given)
> 100 µM: HCT-15
inactive: DU-145 > 100 µM | Hs-578T > 100 µM | M14 > 100 µM | OVCAR-3 > 100 µM | MOLT-4 > 100 µM | SN12C > 100 µM | KM12 > 100 µM | EKVX > 100 µM | MCF7 62.7 µM | HOP-92 63.4 µM | SK-MEL-28 > 100 µM | SF-268 > 100 µM | HOP-62 > 100 µM | OVCAR-8 > 100 µM | COLO 205 > 100 µM | MDA-N > 100 µM | MDA-MB-435 > 100 µM | SNB-75 > 100 µM | MDA-MB-231 > 100 µM

C[N+]1(C)C/C(=C\C=C\c2ccccc2)C(=O)/C(=C/C=C/c2ccccc2)C1
inactive: DU-145 17.2 µM | Hs-578T 4.29 µM | M14 16.3 µM | OVCAR-3 8.61 µM | MOLT-4 4.06 µM | SN12C 7.69 µM | KM12 2.93 µM | EKVX 45.1 µM | MCF7 10.2 µM | HOP-92 17.9 µM | SK-MEL-28 3.85 µM | SF-268 4.97 µM | HOP-62 21.3 µM | OVCAR-8 14.5 µM | MDA-N 4.48 µM | MDA-MB-435 4.28 µM | SNB-75 6.73 µM | MDA-MB-231 10.4 µM
40.2 µM: HCT-15
active: COLO 205 0.773 µM

CC1/C=C/C=C/CC/C=C/C=C/C=C/C=C/C(OC2OC(C)C(O)C(N)C2O)CC2OC(CC(O)C(O)CCC(O)CC(O)CC(O)CC(=O)OC(C)C(C)C1O)CC(O)C2C(=O)O (stereo not given)
inactive: DU-145 17.7 µM | Hs-578T 24.8 µM | M14 19.7 µM | OVCAR-3 20 µM | MOLT-4 20.2 µM | SN12C 15.9 µM | KM12 26.8 µM | EKVX 16.7 µM | MCF7 17.5 µM | HOP-92 45.6 µM | SK-MEL-28 19.7 µM | SF-268 24.9 µM | HOP-62 19.4 µM | OVCAR-8 21.6 µM | COLO 205 21.8 µM | MDA-N 17.3 µM | MDA-MB-435 17.6 µM | SNB-75 18.6 µM | MDA-MB-231 17.6 µM
27.3 µM: HCT-15

COc1cc(C=O)cc(/C=N/c2ccccn2)c1O
29 µM: HCT-15
inactive: DU-145 > 100 µM | Hs-578T 4.63 µM | M14 6.87 µM | OVCAR-3 19.8 µM | MOLT-4 24.5 µM | SN12C 12.6 µM | KM12 24.5 µM | EKVX 23.4 µM | MCF7 52.1 µM | HOP-92 2.72 µM | SK-MEL-28 3.32 µM | SF-268 3.37 µM | HOP-62 16 µM | OVCAR-8 2.78 µM | COLO 205 7.08 µM | MDA-N 7.23 µM | MDA-MB-435 9.29 µM | SNB-75 3.78 µM | MDA-MB-231 9.02 µM

CCOC(=O)c1nc2cc(C(F)(F)F)ccc2nc1Nc1ccc(Cl)c(Cl)c1
inactive: DU-145 > 100 µM | Hs-578T > 100 µM | M14 > 100 µM | OVCAR-3 > 100 µM | MOLT-4 > 100 µM | SN12C > 100 µM | KM12 65 µM | EKVX > 100 µM | MCF7 > 100 µM | HOP-92 24.2 µM | SK-MEL-28 > 100 µM | SF-268 > 100 µM | HOP-62 76.6 µM | OVCAR-8 > 100 µM | COLO 205 > 100 µM | MDA-N > 100 µM | MDA-MB-435 62.7 µM | SNB-75 58.1 µM | MDA-MB-231 > 100 µM
> 100 µM: HCT-15

Nc1nc2c(=O)c3ccccc3sc2s1
34.5 µM: HCT-15
inactive: DU-145 68.9 µM | Hs-578T 43.7 µM | M14 > 100 µM | OVCAR-3 56.2 µM | MOLT-4 47.4 µM | SN12C 84.3 µM | KM12 > 100 µM | EKVX 23 µM | MCF7 5.96 µM | HOP-92 37.4 µM | SK-MEL-28 > 100 µM | SF-268 40.6 µM | HOP-62 29.2 µM | OVCAR-8 22.6 µM | COLO 205 96.4 µM | MDA-N > 100 µM | MDA-MB-435 > 100 µM | SNB-75 40.5 µM | MDA-MB-231 31.9 µM

O=C1C([N-]S(=O)(=O)c2ccccc2)=C([n+]2ccc(Cc3ccccc3)cc2)C(=O)c2ccccc21
active: OVCAR-3 0.142 µM | MCF7 0.435 µM | SK-MEL-28 0.859 µM | COLO 205 0.0644 µM | MDA-N 0.191 µM | MDA-MB-435 0.18 µM
inactive: DU-145 1.53 µM | Hs-578T 2.19 µM | M14 1.32 µM | MOLT-4 1.81 µM | SN12C 1.7 µM | KM12 1.89 µM | EKVX 1.76 µM | HOP-92 2.72 µM | SF-268 1.71 µM | HOP-62 1.75 µM | OVCAR-8 2.04 µM | SNB-75 1.31 µM | MDA-MB-231 2.56 µM
1.69 µM: HCT-15

Cc1nn(-c2ccccc2)c(C)c1/C=N/N=C1\S/C(=C\c2ccc(Cl)cc2)C(=O)N1c1ccccc1
9.89 µM: HCT-15
inactive: DU-145 > 100 µM | Hs-578T 5.65 µM | M14 > 100 µM | OVCAR-3 > 100 µM | MOLT-4 14.2 µM | SN12C > 100 µM | KM12 7.67 µM | EKVX > 100 µM | MCF7 17.3 µM | HOP-92 91 µM | SK-MEL-28 > 100 µM | SF-268 51.5 µM | HOP-62 20.1 µM | OVCAR-8 40.3 µM | COLO 205 > 100 µM | MDA-N 62.5 µM | MDA-MB-435 32 µM | SNB-75 11.6 µM | MDA-MB-231 34.7 µM

COc1c2cc([N+](=O)[O-])cc1CN(C(=O)C(F)(F)F)CCOCCN(C(=O)C(F)(F)F)C2
> 100 µM: HCT-15
inactive: DU-145 > 100 µM | Hs-578T > 100 µM | M14 > 100 µM | OVCAR-3 > 100 µM | MOLT-4 > 100 µM | SN12C > 100 µM | KM12 > 100 µM | EKVX > 100 µM | MCF7 > 100 µM | HOP-92 > 100 µM | SK-MEL-28 > 100 µM | SF-268 > 100 µM | HOP-62 > 100 µM | OVCAR-8 > 100 µM | COLO 205 > 100 µM | MDA-N > 100 µM | MDA-MB-435 > 100 µM | SNB-75 69.7 µM | MDA-MB-231 > 100 µM

COc1ccccc1C1(c2c(OC)c(=O)c2=O)SCCCS1
61 µM: HCT-15
inactive: DU-145 > 100 µM | Hs-578T 35 µM | M14 > 100 µM | OVCAR-3 86.7 µM | MOLT-4 72.4 µM | SN12C 36.6 µM | KM12 > 100 µM | EKVX 75.2 µM | MCF7 > 100 µM | HOP-92 19.2 µM | SK-MEL-28 > 100 µM | SF-268 > 100 µM | HOP-62 > 100 µM | OVCAR-8 67.1 µM | COLO 205 > 100 µM | MDA-N > 100 µM | MDA-MB-435 > 100 µM | SNB-75 71.8 µM | MDA-MB-231 83.2 µM

COC(=O)Nc1nc2cc(S(=O)(=O)N3CCOCC3)ccc2[nH]1
inactive: DU-145 > 100 µM | Hs-578T > 100 µM | M14 > 100 µM | OVCAR-3 > 100 µM | MOLT-4 94.4 µM | SN12C > 100 µM | KM12 65.5 µM | EKVX > 100 µM | MCF7 > 100 µM | HOP-92 > 100 µM | SK-MEL-28 49.7 µM | SF-268 > 100 µM | HOP-62 91.8 µM | OVCAR-8 > 100 µM | COLO 205 > 100 µM | MDA-N 27.6 µM | MDA-MB-435 26.4 µM | SNB-75 69.8 µM | MDA-MB-231 > 100 µM
> 100 µM: HCT-15

CC12OC(=O)[C@@]3(O)CCC4C(C[C@H]5O[C@]56CC=CC(=O)[C@]46C)C45OC[C@H]6C(=O)O[C@@H]1C[C@@]6(C)[C@H](C4=O)C23O5 (stereo not given in full)
active: OVCAR-3 0.676 µM | MOLT-4 0.673 µM | SN12C 0.953 µM | MCF7 0.578 µM | SK-MEL-28 0.394 µM | SF-268 0.309 µM | OVCAR-8 0.955 µM | COLO 205 0.601 µM | MDA-MB-231 0.885 µM
0.977 µM: HCT-15
inactive: DU-145 2.56 µM | Hs-578T 5.47 µM | M14 1.57 µM | KM12 1.85 µM | EKVX 3.28 µM | HOP-92 2.11 µM | HOP-62 2.57 µM | MDA-N 3.4 µM | MDA-MB-435 1.42 µM | SNB-75 6.79 µM

CCCC(=O)C1=C(O)C(Cc2c(O)c(C)c(O)c(C(=O)CCC)c2O)=C(O)C(C)(C)C1=O
20 µM: HCT-15
inactive: DU-145 > 50 µM | Hs-578T 40.6 µM | M14 > 50 µM | OVCAR-3 > 50 µM | MOLT-4 11 µM | SN12C > 50 µM | KM12 23.8 µM | EKVX > 50 µM | MCF7 21.9 µM | HOP-92 10.2 µM | SK-MEL-28 16.2 µM | SF-268 34.8 µM | HOP-62 31.8 µM | OVCAR-8 > 50 µM | COLO 205 19.4 µM | MDA-N > 50 µM | MDA-MB-435 > 50 µM | SNB-75 29.4 µM | MDA-MB-231 > 50 µM

O=C(/C=C/C=C/c1ccccc1)CCc1ccccc1
inactive: DU-145 > 100 µM | Hs-578T 75.9 µM | M14 > 100 µM | OVCAR-3 > 100 µM | MOLT-4 21 µM | SN12C > 100 µM | KM12 22.1 µM | EKVX > 100 µM | MCF7 > 100 µM | HOP-92 > 100 µM | SK-MEL-28 > 10 µM | SF-268 85.1 µM | HOP-62 > 100 µM | OVCAR-8 73.8 µM | COLO 205 > 100 µM | MDA-N > 100 µM | MDA-MB-435 72.6 µM | SNB-75 > 100 µM | MDA-MB-231 > 100 µM
94.4 µM: HCT-15
